From patent publication US10508088B2, “Methods using HDAC11 inhibitors” (FORMA Therapeutics, Inc., priority 2016, dated 2019)

Assays:
HDAC11 = HDAC11 (Homo sapiens (Human), UniProt Q96DB2); test: HDAC inhibition assay, electrophoretic mobility shift (Nanosyn); type: biochemical; settings: for selectivity over HDACs 1-10: HDAC11 versus HDACs 1-10; for IC50: read-out: HDAC Biochemical IC50 HDAC11
Description: This example describes in vitro inhibition properties of exemplary HDAC11 inhibitors for various HDACs. HDAC inhibition assays were performed using an electrophoretic mobility shift assay at Nanosyn, Inc. (Santa Clara, Calif.). Full length human recombinant HDAC proteins were expressed in the baculoviral system and purified by affinity chromatography. A human recombinant HDAC3 was co-expressed with nuclear receptor corepressor (Ncor2). The following peptide substrates were used: FAM-RHKK(Ac)-NH2 for HDAC3, HDAC6 and HDAC8; FITC-H3K27(Ac)-NH2 for HDAC1, HDAC2 and HDAC10; FAM-RHKK(tri-fluor-Ac)-NH2 for HDAC4, HDAC5, HDAC7, HDAC9 and HDAC11. Reactions consisting of compound, enzyme, and substrate were performed in reaction buffer (comprised of 100 mM HEPES, pH7.5, 25 mM KCl, 0.1% bovine serum albumin, 0.01% Triton X-100) at 25° C. and quenched by the addition of termination buffer (100 mM HEPES, pH7.5, 0.01% Triton X-100, 0.05% SDS). The fluorescence intensity of the electrophoretically separated de-acetylated product and substrate peptide were measured and analyzed using the LabChip® 3000 microfluidic electrophoresis instrument (Perkin Elmer/Caliper Life Sciences). The IC50 values of inhibitors were determined by fitting the %-inhibition curves with 4 parameter dose-response model using XLfit 4 software (IDBS).

[1] = tested on: Sox2, Gli1, Yap1 mRNA in H1650 cells; test: QRT-PCR assay for stem cell transcription factors; type: cell-based; settings: H1650, 72 hours
Description: (§1) Given the effects of HDAC11 inhibition on stem-like side population cells, the effects on the expression of stem cell transcription factors was determined using QRT-PCR. A549 or H1650 cells were plated in 60 mm cell culture dishes (120,000 cells). The next day, HDAC11 inhibitors were added at various concentrations and incubated for 72 hours. For the siRNA experiments, A549 cells were plated in 60 mm cell culture dishes (120,000 cells per dish). The siRNAs (Santa Cruz Biotechnologies sc-106896 or ThermoFisher Scientific Cat#4392420) were transfected at a concentration of 100 and 150 pmoles into cells using Oligofectamine reagent (Invitrogen) as per manufacturer's protocol. A non-targeting siRNA (Ambion AM4635) was used as a control for all the transfection experiments. The cells were harvested after 72 hours post transfection. At the end of the treatments, cells were scraped, lysed and total RNA was isolated by RNeasy miniprep kit from Qiagen following the manufacturer's protocol (RNeasy mini kit Cat No. 74104). 1 μg of RNA was converted into cDNA using iScript cDNA synthesis kit (BioRad) in a 20 μl total reaction volume. Levels of mRNA were further analyzed using quantitative real time-PCR (qRT-PCR) that was performed in CFX96 Real time system using BioRad iQ SYBR Green supermix. The reaction was set with 5 μl of SYBR Green, 1 μl of 1 μM Forward primer, 1 μl of 1 μM Reverse primer, 0.5 μl of cDNA and 4.5 μl of water in a total 12 μl reaction. Data was normalized using GAPDH as an internal control and fold change was calculated by 2^−Delta-DeltaCt method. First the Delta-Ct was calculated (Delta-Ct=Ct Gene−Ct GAPDH). Next Delta-Delta-Ct was calculated (Delta-Delta-Ct=Delta-Ct treatment−Delta-Ct control). Finally fold change was calculated by 2^−Delta-DeltaCt.

[2] = tested on: Sox2, Gli1, Yap1 mRNA in A549 cells; test: QRT-PCR assay for stem cell transcription factors; type: cell-based; settings: A549, 72 hours
Description: as §1

HEL 92.1.7 cells = test: Cell proliferation assay (CCK8); type: cell-based; settings: HEL 92.1.7, 48 h
Description: This example describes inhibition of in vitro cell proliferation with exemplary HDAC11 inhibitors. The effects of selective HDAC11 inhibitors on cell proliferation were measured in cell lines containing the MPN-associated mutations MPL W515L (Ba/F3 MPL W515L) and JAK2 V617F (Ba/F3 JAK2 V617F, HEL 92.1.7, SET-2). HEL 92.1.7 and SET-2 cells were purchased from the ATCC and DSMZ, respectively. Ba/F3 cells overexpressing either MPLW515L or JAK2V617F, which were cytokine independent, were generated by transforming Ba/F3 cells with retroviruses overexpressing either MPL W515L or JAK2V617F. For survival assays, cells were seeded in 96-well plates at the density of 0.1 million/ml with addition of indicated compounds and incubated at 37° C. for 48 h. CCK8 solution (Dojindo, Rockville, Md.) was added and absorbance at 450 nm was measured after 3 hours of incubation. Readings were normalized to dimethylsulfoxide (DMSO)-treated wells.

[3] = target: Full length human recombinant HDAC11 (Homo sapiens (Human), UniProt Q96DB2); test: Enzymatic HDAC11 assay, electrophoretic mobility shift; type: biochemical; settings: substrate FAM-RHKK(tri-fluor-Ac)-NH2, read-out: HDAC11 IC50 Range
Summary of the method: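 Baculovirus-expressed enzyme (10 nM) with 2 μM FAM-RHKK(tri-fluor-Ac)-NH2 in 100 mM HEPES pH 7.5, 25 mM KCl, 0.1% BSA, 0.01% Triton X-100, 1% DMSO at 25 °C. Substrate and product separated by microfluidic electrophoresis; inhibition from product/(substrate+product) ratio. IC50 by 4-parameter fit over 12 concentrations.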

Chain of HDAC11 (Q96DB2 whole entry): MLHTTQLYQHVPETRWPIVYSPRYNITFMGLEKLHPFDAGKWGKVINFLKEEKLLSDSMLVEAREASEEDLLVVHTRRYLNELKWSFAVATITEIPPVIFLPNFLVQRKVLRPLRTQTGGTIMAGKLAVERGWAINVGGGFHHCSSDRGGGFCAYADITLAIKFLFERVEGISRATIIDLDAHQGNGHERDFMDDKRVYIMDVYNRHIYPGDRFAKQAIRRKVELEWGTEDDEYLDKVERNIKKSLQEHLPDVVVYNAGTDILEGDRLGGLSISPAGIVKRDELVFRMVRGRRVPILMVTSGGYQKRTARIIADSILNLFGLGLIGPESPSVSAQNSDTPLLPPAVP
Chain of Full length human recombinant HDAC11 (Q96DB2 whole entry): as above

Row | Structure (SMILES) | selectivity over HDACs 1-10 (HDAC11) [fold] | IC50 (HDAC11) [nM] | expression of Gli1 and Yap1 [1] | expression of Sox2 [1] | expression of Gli1 and Yap1 [2] | expression of Sox2 [2] | growth of the HEL 92.1.7 cell line (HEL 92.1.7 cells) | IC50 [3] [nM]
1 | O=C(NO)c1cccc(Nc2nc3cc(Cl)c(Cl)cc3o2)c1 [HDTK010, 3-((5,6-dichlorobenzo[d]oxazol-2-yl)amino)-N-hydroxybenzamide] | > 200 | 1 to 5 | decreased expression | decreased expression | decreased expression | decreased expression | inhibited the growth | –
2 | O=C(NO)c1cccc2c1C[C@]1(CCN(Cc3ccc(Cl)c(C(F)(F)F)c3)C1=O)C2 [HDTK054, (S)-1′-(4-chloro-3-(trifluoromethyl)benzyl)-N-hydroxy-2′-oxo-1,3-dihydrospiro[indene-2,3′-pyrrolidine]-4-carboxamide] | > 200 | 10 to 50 | decreased expression | decreased expression | decreased expression | decreased expression | – | < 500
